Like-named read-outs stand apart in the source and are kept apart here. Starred links: 1 amine or outer side, 2 acyl side, 3 side chain; linkers in the order of their positions; H or OH if unused. Positions of bridges follow the written chain, without caps; N, C: chain ends. Non-standard residues stand in square brackets, D forms with d. Residues, ends and D or L forms follow the SMILES beside them. Groups on a side chain read outwards from the residue. *: point of attachment. CH3O(CH2CH2O)11CH2CH2CO = COCCOCCOCCOCCOCCOCCOCCOCCOCCOCCOCCOCCC(=O)*; X5 = CCCCCCCCCCCCCCCC(=O)NCC[N+](C)(C)CC(=O)*; C18 diacid = O=C(O)CCCCCCCCCCCCCCCCC(=O)*; Dip = N[C@H](C(=O)O)C(c1ccccc1)c1ccccc1; X6 = O=C([C@H](CC1N=NN=N1)N[*:1])[*:2]; γGlu = O=C(O)[C@H](CCC(=O)[*:2])N[*:1]; Ethylenediamine = C(CN[*:2])N[*:1]; Palmitoyl = CCCCCCCCCCCCCCCC(=O)*; dNMeF = CN[C@H](Cc1ccccc1)C(=O)O; β3hF = N[C@H](CC(=O)O)Cc1ccccc1; X3 = CCCCCCCCCCCCCCCC(=O)NCCC*; NMeK = CN[C@@H](CCCCN)C(=O)O; Tle = CC(C)(C)[C@H](N)C(=O)O; Isovaleryl = CC(C)CC(=O)*; hCys = N[C@@H](CCS)C(=O)O; Dap = NC[C@H](N)C(=O)O; AEEA = NCCOCCOCC(=O)O; Ahx = NCCCCCC(=O)O
Columns and labels:
ferroportin [1] = biological target: T1, ferroportin (Homo sapiens, UniProt Q9NP59); experiment: FPN activity assay: ferroportin-GFP internalization/degradation in HEK293 cells; assay type: cell-based; set-up: expressed in transfected cells; conditions: read-out: FPN IC50
T1 sequence (Q9NP59 1-571): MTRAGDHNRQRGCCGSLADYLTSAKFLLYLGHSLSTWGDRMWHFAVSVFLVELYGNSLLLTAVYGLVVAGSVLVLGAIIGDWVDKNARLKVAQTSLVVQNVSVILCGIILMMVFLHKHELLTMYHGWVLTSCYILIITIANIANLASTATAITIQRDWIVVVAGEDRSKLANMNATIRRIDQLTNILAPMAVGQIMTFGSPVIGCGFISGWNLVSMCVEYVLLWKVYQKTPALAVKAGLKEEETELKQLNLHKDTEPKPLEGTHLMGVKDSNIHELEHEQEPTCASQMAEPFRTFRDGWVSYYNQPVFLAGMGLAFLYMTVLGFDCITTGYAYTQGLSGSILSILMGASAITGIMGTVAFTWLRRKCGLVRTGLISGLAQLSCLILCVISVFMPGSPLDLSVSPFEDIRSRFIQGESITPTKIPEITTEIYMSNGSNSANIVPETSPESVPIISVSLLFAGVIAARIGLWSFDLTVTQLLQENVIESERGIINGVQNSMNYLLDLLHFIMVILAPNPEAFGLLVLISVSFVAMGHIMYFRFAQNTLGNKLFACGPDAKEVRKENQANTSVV
Description: Following internalization, the ferroporin protein is degraded.
A retro inverse peptide is a peptide with a reversed sequence in all D amino acids. An example is that Hy-Glu-Thr-His-NH2 becomes Hy-DHis-DThr-DGlu-NH2. The EC50 of these reference compounds for ferroportin internalization/degradation was determined according to the FPN activity assay described above. These peptides served as control standards.

ferroportin [2] = biological target: T1, ferroportin; experiment: T47D cell-based ferroportin internalization assay in presence of mouse serum albumin (MSA); set-up: a human breast carcinoma adherent cell line which endogenously expresses ferroportin; host or cells: T47D
In short: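 Peptide potency for inducing ferroportin internalization was measured in T47D cells in the presence of serum albumin. Cells grown in RPMI with fetal bovine serum were seeded in 96-well plates at 80-100 k cells per well in 100 ul and rested overnight. Dilution series of test peptides were preincubated 30 min at room temperature, then added to the cells after the medium was aspirated.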

[3] = ferroportin-GFP internalization/degradation, HEK293 cells, Table 6E
[4] = T47D internalization assay in presence of mouse serum albumin (MSA), Table 6E
[5] = Table 6E, ferroportin-GFP internalization/degradation, at least 18 hours incubation
[6] = Table 6E, T47D internalization assay with MSA

Structure (SMILES)	DC50 (ferroportin [1]; [3]) [nM]	IC50 (ferroportin [2]; [4]) [nM]	DC50 (ferroportin [1]; [5]) [nM]	IC50 (ferroportin [2]; [6]) [nM]	also measured
CCCCCCCCCCCCCCCC(=O)N[C@@H](CCC(=O)NCCCC[C@@H](C(=O)N[C@H](CC(=O)N[C@H](CCCCNC(=O)CCOCCOCCOCCOCCOCCOCCOCCOCCOCCOCCOCCOC)C(N)=O)Cc1ccccc1)N(C)C(=O)[C@@H]1CSSC[C@H](NC(=O)[C@@H]2CCCN2C(=O)[C@@H](NC(=O)[C@H](Cc2cnc[nH]2)NC(=O)[C@@H](NC(=O)[C@H](CCC(=O)O)NC(=O)CC(C)C)[C@@H](C)O)C(c2ccccc2)c2ccccc2)C(=O)N1)C(=O)O [compound 222] (Isovaleryl-ETH[Dip]PCC[NMeK]([γGlu-Palmitoyl])[β3hF][dK](CH3O(CH2CH2O)11CH2CH2CO)-NH2; disulfide 6-7)			10 to 100	1 to 10	
CCCCCCCCCCCCCCCC(=O)NCCCSCC[C@H](NC(=O)[C@@H]1CSSC[C@H](NC(=O)[C@@H]2CCCN2C(=O)[C@@H](NC(=O)[C@H](Cc2cnc[nH]2)NC(=O)[C@@H](NC(=O)[C@H](CCC(=O)O)NC(=O)CC(C)C)[C@@H](C)O)C(c2ccccc2)c2ccccc2)C(=O)N1)C(=O)N[C@H](C(=O)N[C@H](CCCCN)C(N)=O)C(c1ccccc1)c1ccccc1 [compound 162] (Isovaleryl-ETH[Dip]PCC[hCys](X3)[Dip][dK]-NH2; disulfide 6-7)			10 to 100	1 to 10	
CCCCCCCCCCCCCCCC(=O)NCCCCCC(=O)NCCCC[C@H]1C(=O)N[C@@H](C(c2ccccc2)c2ccccc2)C(=O)NCCNC(=O)CC[C@H](NC(=O)CC(C)C)C(=O)N[C@@H]([C@@H](C)O)C(=O)N[C@@H](Cc2c[nH]cn2)C(=O)N[C@@H](C(c2ccccc2)c2ccccc2)C(=O)N2CCC[C@H]2C(=O)N[C@H]2CSSC[C@H](NC2=O)C(=O)N1C [compound 161] (Isovaleryl-ETH[Dip]PCC[NMeK]([Ahx-Palmitoyl])[Dip]; linker 1-C via Ethylenediamine; disulfide 6-7)			1 to 10	10 to 100	
COCCOCCOCCOCCOCCOCCOCCOCCOCCOCCOCCOCCC(=O)NCCCC[C@@H](NC(=O)C[C@H](Cc1ccccc1)NC(=O)[C@H](CCCCNC(=O)COCCOCCNC(=O)COCCOCCNC(=O)[C@H](CN)NC(=O)CCCCCCCCCCCCCCCCC(=O)O)N(C)C(=O)[C@@H]1CSSC[C@H](NC(=O)[C@@H]2CCCN2C(=O)[C@@H](NC(=O)[C@H](Cc2c[nH]cn2)NC(=O)[C@@H](NC(=O)[C@H](CCC(=O)O)NC(=O)CC(C)C)[C@@H](C)O)C(c2ccccc2)c2ccccc2)C(=O)N1)C(N)=O [compound 255] (Isovaleryl-ETH[Dip]PCC[NMeK]([AEEA-AEEA-Dap-C18 diacid])[β3hF][dK](CH3O(CH2CH2O)11CH2CH2CO)-NH2; disulfide 6-7)	10 to 100	10 to 100			
CC(C)CC(=O)N[C@@H](CC1N=NN=N1)C(=O)N[C@H](C(=O)N[C@@H](Cc1cnc[nH]1)C(=O)N[C@H](C(=O)N1CCC[C@H]1C(=O)N[C@H]1CSSC[C@@H](C(=O)N(C)[C@@H](CCCCNC(=O)COCCOCCNC(=O)COCCOCCNC(=O)[C@H](CN)NC(=O)CCCCCCCCCCCCCCCCC(=O)O)C(=O)N[C@H](CC(=O)N[C@H](CCCCN)C(N)=O)Cc2ccccc2)NC1=O)C(c1ccccc1)c1ccccc1)[C@@H](C)O [compound 288] (Isovaleryl-[X6]TH[Dip]PCC[NMeK]([AEEA-AEEA-Dap-C18 diacid])[β3hF][dK]-NH2; disulfide 6-7)	10 to 100	10 to 100			
CCCCCCCCCCCCCCCC(=O)NCC[N+](C)(C)CC(=O)NCCCC[C@H]1C(=O)N[C@@H](C(c2ccccc2)c2ccccc2)C(=O)N[C@@H](C(N)=O)CCCCNC(=O)CC[C@H](NC(=O)CC(C)C)C(=O)N[C@@H]([C@@H](C)O)C(=O)N[C@@H](Cc2c[nH]cn2)C(=O)N[C@@H](C(c2ccccc2)c2ccccc2)C(=O)N2CCC[C@H]2C(=O)N[C@H]2CSSC[C@H](NC2=O)C(=O)N1C [compound 143] (Isovaleryl-ETH[Dip]PCC[NMeK](X5)[Dip][dK]-NH2; lactam 1-10; disulfide 6-7)			10 to 100	1 to 10	
CC(C)CC(=O)N[C@@H](CCC(=O)O)C(=O)N[C@H](C(=O)N[C@@H](Cc1c[nH]cn1)C(=O)N[C@H](C(=O)N1CCC[C@H]1C(=O)N[C@H]1CSSC[C@@H](C(=O)N[C@@H](CCCCNC(=O)COCCOCCNC(=O)COCCOCCNC(=O)CC[C@H](NC(=O)CCCCCCCCCCCCCCCCC(=O)O)C(=O)O)C(=O)N[C@H](CC(=O)N[C@H](CCCCN)C(N)=O)Cc2ccccc2)NC1=O)C(c1ccccc1)c1ccccc1)[C@@H](C)O [Compd ID 31, Isovaleric Acid-E-T-H-[Dpa]-P-[Cys]-[Cys]-[Lys(1PEG2_1PEG2_IsoGlu_C18_Diacid)]-[bhPhe]-[(D)Lys]-NH2] (Isovaleryl-ETH[Dip]PCCK([AEEA-AEEA-γGlu-C18 diacid])[β3hF][dK]-NH2; disulfide 6-7)					DC50 (ferroportin [1]; ferroportin-GFP HEK293 cells, at least 18 hours): 10 to 100 nM; IC50 (ferroportin [2]; T47D cells, 0.5% mouse serum albumin, 1 hr incubation): 10 to 100 nM
CC(C)CC(=O)N[C@@H](CCC(=O)O)C(=O)N[C@H](C(=O)N[C@@H](Cc1cnc[nH]1)C(=O)N[C@H](C(=O)N1CCC[C@H]1C(=O)N[C@H]1CSSC[C@@H](C(=O)N(C)[C@@H](CCCCNC(=O)COCCOCCNC(=O)COCCOCCNC(=O)[C@H](CN)NC(=O)CCCCCCCCCCCCCCCCC(=O)O)C(=O)N[C@H](CC(=O)N[C@H](CCCCN)C(=O)N(C)[C@H](Cc2ccccc2)C(N)=O)Cc2ccccc2)NC1=O)C(c1ccccc1)c1ccccc1)[C@@H](C)O [compound 250] (Isovaleryl-ETH[Dip]PCC[NMeK]([AEEA-AEEA-Dap-C18 diacid])[β3hF][dK][dNMeF]-NH2; disulfide 6-7)	10 to 100	1 to 10			

Further lines, with some results ahead:

DC50 (ferroportin [1]; [3]) [nM]	IC50 (ferroportin [2]; [4]) [nM]	DC50 (ferroportin [1]; [5]) [nM]	IC50 (ferroportin [2]; [6]) [nM]	Structure (SMILES)	also measured
1 to 10	10 to 100			CC(C)CC(=O)N[C@@H](CCC(=O)O)C(=O)N[C@H](C(=O)N[C@@H](Cc1c[nH]cn1)C(=O)N[C@H](C(=O)N1CCC[C@H]1C(=O)N[C@H]1CSSC[C@@H](C(=O)N(C)[C@@H](CCCCNC(=O)COCCOCCNC(=O)COCCOCCNC(=O)[C@H](CN)NC(=O)CCCCCCCCCCCCCCCCC(=O)O)C(=O)N[C@H](C(=O)N[C@H](CCCCN)C(N)=O)C(c2ccccc2)c2ccccc2)NC1=O)C(c1ccccc1)c1ccccc1)[C@@H](C)O [compound 293] (Isovaleryl-ETH[Dip]PCC[NMeK]([AEEA-AEEA-Dap-C18 diacid])[Dip][dK]-NH2; disulfide 6-7)	
10 to 100	10 to 100			CC(C)CC(=O)N[C@@H](CCC(=O)O)C(=O)N[C@H](C(=O)N[C@@H](Cc1c[nH]cn1)C(=O)N[C@H](C(=O)N1CCC[C@H]1C(=O)N[C@H]1CSSCC[C@@H](C(=O)N(C)[C@@H](CCCCNC(=O)COCCOCCNC(=O)COCCOCCNC(=O)[C@H](CN)NC(=O)CCCCCCCCCCCCCCCCC(=O)O)C(=O)N[C@H](CC(=O)N[C@H](CCCCN)C(N)=O)Cc2ccccc2)NC1=O)C(c1ccccc1)c1ccccc1)[C@@H](C)O [compound 270] (Isovaleryl-ETH[Dip]PC[hCys][NMeK]([AEEA-AEEA-Dap-C18 diacid])[β3hF][dK]-NH2; disulfide 6-7)	
10 to 100	10 to 100			CC(C)CC(=O)N[C@@H](CCC(=O)O)C(=O)N[C@H](C(=O)N[C@@H](Cc1c[nH]cn1)C(=O)N[C@H](C(=O)N1CCC[C@H]1C(=O)N[C@H]1CSSC[C@@H](C(=O)N(C)[C@@H](CCCCNC(=O)COCCOCCNC(=O)COCCOCCNC(=O)[C@H](CN)NC(=O)CCCCCCCCCCCCCCCCC(=O)O)C(=O)N[C@H](CC(=O)N[C@H](C(N)=O)C(C)(C)C)Cc2ccccc2)NC1=O)C(c1ccccc1)c1ccccc1)[C@@H](C)O [compound 290] (Isovaleryl-ETH[Dip]PCC[NMeK]([AEEA-AEEA-Dap-C18 diacid])[β3hF][Tle]-NH2; disulfide 6-7)	
10 to 100	10 to 100			CC(C)CC(=O)N[C@@H](CCC(=O)O)C(=O)N[C@H](C(=O)N[C@@H](Cc1c[nH]cn1)C(=O)N[C@H](C(=O)N1CCC[C@H]1C(=O)N[C@H]1CSSC[C@@H](C(=O)N(C)[C@@H](CCCCNC(=O)COCCOCCNC(=O)COCCOCCNC(=O)[C@H](CN)NC(=O)CCCCCCCCCCCCCCCCC(=O)O)C(N)=O)NC1=O)C(c1ccccc1)c1ccccc1)[C@@H](C)O [compound 294] (Isovaleryl-ETH[Dip]PCC[NMeK]([AEEA-AEEA-Dap-C18 diacid])-NH2; disulfide 6-7)	

Reference: US20250277012A1 (Protagonist Therapeutics, Inc., priority 2021, published 2025)
